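Cultured in 96-well plates, cells were exposed to test compound for 48 hours across five concentrations. At the TGI there is no net growth.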
Experiments:
Assay in all cases: NCI-60 cell line screen, 48 h
CAKI-1 renal = tested on: CAKI-1 renal
CCRF-CEM leukemia = tested on: CCRF-CEM leukemia
COLO 205 colon = tested on: COLO 205 colon
DLD-1 colon = tested on: DLD-1 colon
DMS 114 small cell lung = tested on: DMS 114 small cell lung
HCC-2998 colon = tested on: HCC-2998 colon
HCT-15 colon = tested on: HCT-15 colon
HOP-92 NSCLC = tested on: HOP-92 NSCLC
HT29 colon = tested on: HT29 colon
IGROV1 ovarian = tested on: IGROV1 ovarian
K-562 leukemia = tested on: K-562 leukemia
KM12 colon = tested on: KM12 colon
KM20L2 colon = tested on: KM20L2 colon
LXFL 529 NSCLC = tested on: LXFL 529 NSCLC
M14 melanoma = tested on: M14 melanoma
M19-MEL melanoma = tested on: M19-MEL melanoma
MALME-3M melanoma = tested on: MALME-3M melanoma
MOLT-4 leukemia = tested on: MOLT-4 leukemia
NCI-H23 lung = tested on: NCI-H23 lung
NCI-H522 lung = tested on: NCI-H522 lung
OVCAR-3 ovarian = tested on: OVCAR-3 ovarian
OVCAR-4 ovarian = tested on: OVCAR-4 ovarian
OVCAR-5 ovarian = tested on: OVCAR-5 ovarian
OVCAR-8 ovarian = tested on: OVCAR-8 ovarian
RXF 393 renal = tested on: RXF 393 renal
SF-295 CNS = tested on: SF-295 CNS
SK-MEL-2 melanoma = tested on: SK-MEL-2 melanoma
SK-MEL-28 melanoma = tested on: SK-MEL-28 melanoma
SK-MEL-5 melanoma = tested on: SK-MEL-5 melanoma
SK-OV-3 ovarian = tested on: SK-OV-3 ovarian
SN12C renal = tested on: SN12C renal
SNB-19 CNS = tested on: SNB-19 CNS
SNB-78 CNS = tested on: SNB-78 CNS
SR leukemia = tested on: SR leukemia
SW-620 colon = tested on: SW-620 colon
TK-10 renal = tested on: TK-10 renal
U251 CNS = tested on: U251 CNS
UACC-62 melanoma = tested on: UACC-62 melanoma
UO-31 renal = tested on: UO-31 renal
XF 498 CNS = tested on: XF 498 CNS
786-0 renal = tested on: 786-0 renal
A498 renal = tested on: A498 renal
A549 NSCLC = tested on: A549 NSCLC
ACHN renal = tested on: ACHN renal
DMS 273 small cell lung = tested on: DMS 273 small cell lung
EKVX NSCLC = tested on: EKVX NSCLC
HCT-116 colon = tested on: HCT-116 colon
HL-60(TB) leukemia = tested on: HL-60(TB) leukemia
HOP-18 NSCLC = tested on: HOP-18 NSCLC
HOP-62 NSCLC = tested on: HOP-62 NSCLC
LOX IMVI melanoma = tested on: LOX IMVI melanoma
NCI-H226 lung = tested on: NCI-H226 lung
NCI-H460 lung = tested on: NCI-H460 lung
RPMI-8226 leukemia = tested on: RPMI-8226 leukemia
SF-268 CNS = tested on: SF-268 CNS
SF-539 CNS = tested on: SF-539 CNS
SNB-75 CNS = tested on: SNB-75 CNS
UACC-257 melanoma = tested on: UACC-257 melanoma

Compound: COc1cc(/C=C(\NC(=O)c2ccccc2)c2nc3ccc([N+](=O)[O-])cc3[nH]2)cc(OC)c1OC
- TGI (CAKI-1 renal): > 100 µM
- TGI (CCRF-CEM leukemia): > 100 µM
- TGI (COLO 205 colon): > 100 µM
- TGI (DLD-1 colon): > 100 µM
- TGI (DMS 114 small cell lung): > 100 µM
- TGI (HCC-2998 colon): > 100 µM
- TGI (HCT-15 colon): > 100 µM
- TGI (HOP-92 NSCLC): > 100 µM
- TGI (HT29 colon): > 100 µM
- TGI (IGROV1 ovarian): > 100 µM
- TGI (K-562 leukemia): > 100 µM
- TGI (KM12 colon): > 100 µM
- TGI (KM20L2 colon): > 100 µM
- TGI (LXFL 529 NSCLC): > 100 µM
- TGI (M14 melanoma): > 100 µM
- TGI (M19-MEL melanoma): > 100 µM
- TGI (MALME-3M melanoma): > 100 µM
- TGI (MOLT-4 leukemia): > 100 µM
- TGI (NCI-H23 lung): > 100 µM
- TGI (NCI-H522 lung): > 100 µM
- TGI (OVCAR-3 ovarian): > 100 µM
- TGI (OVCAR-4 ovarian): > 100 µM
- TGI (OVCAR-5 ovarian): > 100 µM
- TGI (OVCAR-8 ovarian): > 100 µM
- TGI (RXF 393 renal): > 100 µM
- TGI (SF-295 CNS): > 100 µM
- TGI (SK-MEL-2 melanoma): > 100 µM
- TGI (SK-MEL-28 melanoma): > 100 µM
- TGI (SK-MEL-5 melanoma): > 100 µM
- TGI (SK-OV-3 ovarian): > 100 µM
- TGI (SN12C renal): > 100 µM
- TGI (SNB-19 CNS): > 100 µM
- TGI (SNB-78 CNS): > 100 µM
- TGI (SR leukemia): > 100 µM
- TGI (SW-620 colon): > 100 µM
- TGI (TK-10 renal): > 100 µM
- TGI (U251 CNS): > 100 µM
- TGI (UACC-62 melanoma): > 100 µM
- TGI (UO-31 renal): 89.5 µM
- TGI (XF 498 CNS): > 100 µM

Compound: CCN(CC)C(=O)c1c(N2CCOCC2)cc(N(CC)CC)oc1=O
- TGI (786-0 renal): > 100 µM
- TGI (A498 renal): > 100 µM
- TGI (A549 NSCLC): > 100 µM
- TGI (ACHN renal): > 100 µM
- TGI (CCRF-CEM leukemia): > 100 µM
- TGI (COLO 205 colon): > 100 µM
- TGI (DLD-1 colon): > 100 µM
- TGI (DMS 114 small cell lung): > 100 µM
- TGI (DMS 273 small cell lung): > 100 µM
- TGI (EKVX NSCLC): > 100 µM
- TGI (HCC-2998 colon): > 100 µM
- TGI (HCT-116 colon): > 100 µM
- TGI (HCT-15 colon): > 100 µM
- TGI (HL-60(TB) leukemia): > 100 µM
- TGI (HOP-18 NSCLC): > 100 µM
- TGI (HOP-62 NSCLC): > 100 µM
- TGI (HOP-92 NSCLC): > 100 µM
- TGI (HT29 colon): > 100 µM
- TGI (IGROV1 ovarian): > 100 µM
- TGI (K-562 leukemia): > 100 µM
- TGI (KM12 colon): > 100 µM
- TGI (KM20L2 colon): > 100 µM
- TGI (LOX IMVI melanoma): > 100 µM
- TGI (LXFL 529 NSCLC): > 100 µM
- TGI (M14 melanoma): > 100 µM
- TGI (M19-MEL melanoma): > 100 µM
- TGI (MALME-3M melanoma): > 100 µM
- TGI (MOLT-4 leukemia): > 100 µM
- TGI (NCI-H226 lung): > 100 µM
- TGI (NCI-H23 lung): > 100 µM
- TGI (NCI-H460 lung): > 100 µM
- TGI (NCI-H522 lung): > 100 µM
- TGI (OVCAR-3 ovarian): > 100 µM
- TGI (OVCAR-4 ovarian): > 100 µM
- TGI (OVCAR-8 ovarian): > 100 µM
- TGI (RPMI-8226 leukemia): > 100 µM
- TGI (RXF 393 renal): > 100 µM
- TGI (SF-268 CNS): > 100 µM
- TGI (SF-295 CNS): > 100 µM
- TGI (SF-539 CNS): > 100 µM
- TGI (SK-MEL-2 melanoma): > 100 µM
- TGI (SK-MEL-28 melanoma): > 100 µM
- TGI (SK-OV-3 ovarian): > 100 µM
- TGI (SN12C renal): > 100 µM
- TGI (SNB-19 CNS): > 100 µM
- TGI (SNB-75 CNS): > 100 µM
- TGI (SNB-78 CNS): > 100 µM
- TGI (SR leukemia): > 100 µM
- TGI (SW-620 colon): > 100 µM
- TGI (TK-10 renal): > 100 µM
- TGI (U251 CNS): > 100 µM
- TGI (UACC-257 melanoma): > 100 µM
- TGI (UACC-62 melanoma): > 100 µM
- TGI (UO-31 renal): > 100 µM
- TGI (XF 498 CNS): > 100 µM
